Assay results: ChEMBL document CHEMBL1158407, “Synthesis of conjugated spermine derivatives with 7-nitrobenzoxadiazole (NBD), rhodamine and bodipy as new fluorescent probes for the polyamine transport system” (2009)
The source made the active and inactive calls. No cut-off for these calls is given here.

Columns and labels:
[1] = Cellular uptake in F14512 co-cultured human NAMALWA cells assessed as decrease in fluorescence at 0.1 uM after 2 hrs by FACS analysis relative to control; assay type: functional, cell-based; parameters: scale not given: the % may be the effect or the level left; details: NAMALVA
[2] = Cellular uptake in human NAMALWA cells assessed as fluorescence intensity at 1 uM after 2 hrs by FACS analysis relative to control; assay type: functional, cell-based; details: NAMALVA
CHO-MG = experiment: Differential fluorescence intensity index, ratio of cellular uptake in Chinese hamster CHO cells expressing PTS to cellular uptake in PTS deficient […] CHO-MG cells at 1 uM after 2 hrs by microscopy and FACS analysis; assay type: functional

Compound	Activity [1]	Flu intensity [2]	fold change (FC) (CHO-MG; Cricetulus griseus)	fold change (FC) (CHO-MG)
NCCCNCCCCN(CCCN)C(=S)Nc1ccc(-c2c3ccc(=O)cc-3oc3cc(O)ccc23)c(C(=O)O)c1	inactive	8.1	–	–
CCC1=C(C)/C(=C(\c2ccc(NC(=O)CNCCCNCCCCNCCCN)cc2)c2c(C)c(CC)c(C)n2B(F)F)N=C1C	50%	839	inactive	–
CN(C)S(=O)(=O)c1ccc(NCCCNCCCCNCCCN)c2nonc12	inactive	0	–	–
CCC1=C(C)/C(=C(\c2ccc(N)cc2)c2c(C)c(CC)c(C)n2B(F)F)N=C1C	50%	3180	–	–
CN(CCCNCCCCNCCCN)c1ccc([N+](=O)[O-])c2nonc12	> 70%	56	–	10
CN(C)S(=O)(=O)c1ccc(N2CCN(C(=O)CNCCCNCCCCNCCCN)CC2)c2nonc12	inactive	0	–	–
NCCCCNc1ccc([N+](=O)[O-])c2nonc12	–	–	inactive	–
O=[N+]([O-])c1ccc(NCCCNCCCCNCCCNc2ccc([N+](=O)[O-])c3nonc23)c2nonc12	inactive	627	inactive	–
CCN(CC)c1ccc2c(-c3ccc(S(=O)(=O)[O-])cc3S(=O)(=O)NCCCNCCCCNCCCN)c3ccc(=[N+](CC)CC)cc-3oc2c1	inactive	1.3	–	–
CCN(CC)c1ccc2c(-c3ccc(NC(=S)NCCCNCCCCNCCCN)cc3C(=O)[O-])c3ccc(=[N+](CC)CC)cc-3oc2c1	inactive	–	–	–
O=[N+]([O-])c1ccc(N2CCNCC2)c2nonc12	inactive	1.1	–	–
NCCCNCCCCNCCCNCC(=O)N1CCN(c2ccc([N+](=O)[O-])c3nonc23)CC1	inactive	2.9	–	–
CCN(CC)c1ccc2c(-c3ccc(S(=O)(=O)NCCCNCCCCNCCCN)cc3S(=O)(=O)[O-])c3ccc(=[N+](CC)CC)cc-3oc2c1	inactive	2.9	–	–
CNc1ccc([N+](=O)[O-])c2nonc12	inactive	0.5	inactive	–
NCCCNCCCCNCCCNc1ccc(N)c2nonc12	inactive	0	–	–
NCCCNCCCCNCCCNC(=S)Nc1ccc(-c2c3ccc(=O)cc-3oc3cc(O)ccc23)c(C(=O)O)c1	inactive	7.9	–	–
CCN(CC)c1ccc2c(-c3cccc(NC(=S)NCCCNCCCCNCCCN)c3C(=O)[O-])c3ccc(=[N+](CC)CC)cc-3oc2c1	inactive	15	–	–
CCC1=C(C)/C(=C(\c2ccc([N+](=O)[O-])cc2)c2c(C)c(CC)c(C)n2B(F)F)N=C1C	50%	1390	–	–
NCCCNCCCCNCCCNc1ccc([N+](=O)[O-])c2nonc12	> 70%	65	–	10
